In patent publication US9683231B2, “RNAi-based method of drug screening and characterization” (Massachusetts Institute of Technology, priority 2010, dated 2017):
Like-named read-outs stand apart in the source and are kept apart here. Starred links: 1 amine or outer side, 2 acyl side, 3 side chain; linkers in the order of their positions; H or OH if unused. Positions of bridges follow the written chain, without caps; N, C: chain ends. Non-standard residues stand in square brackets, D forms with d. Residues, ends and D or L forms follow the SMILES beside them. Chains are numbered I, II in the order given. Actinocin(9to1) = Cc1c2oc3c(C)ccc(C(=O)[*:1])c3nc-2c(C(=O)[*:2])c(N)c1=O; NMeV = CN[C@H](C(=O)O)C(C)C; Sar = CNCC(=O)O

Legend:
[1] = system: Eμ-Mycp19^Arf−/− mouse lymphoma cells; experiment: Drug treatment and FACS viability (propidium iodide) to determine LD80-90; type: cell-based
[2] = system: lymphoma cells expressing shATM, shChk2 or shp53; experiment: shATM-Chk2-p53 resistance signature; type: cell-based, mouse
Description: (3d) A comparison of the shTopoI and shTopoII response signatures for APG and NSC3852 with response signatures derived from established Topol (CPT and CPT11) and TopoII poisons (Dox, Mito and VP-16). […] In each case, one million cells were plated before treatment.
Eμ-Mycp19^Arf−/− cells were counted and seeded at 1 million cells per ml in 48-well plates and treated with various concentrations of drugs. To approximate therapeutic situations in which drug dose decreases over time, half of the volume from each experiment was removed and replenished with fresh medium every 24 h. Cells were analyzed by fluorescence-activated cell sorting (FACS), with propidium iodide as a viability marker. LD80-90 of drugs are defined as concentrations at which the lowest viability reading out of three FACS time points (24, 48 and 72 h) is between 10% and 20%. After drug dose was determined, Eμ-Mycp19^Arf−/− cells were infected with retroviruses encoding shRNAs targeting particular genes. Individual infected cell populations were counted and seeded at 1 million cells per ml in 48-well plates and treated with drugs using the aforementioned protocol. At 72 h, treated and untreated cells were analyzed by flow cytometry. GFP percentages of live (PI-negative) cells were recorded and used to calculate relative resistance index.
To compare the relative level of chemoresistance and sensitization conferred by each gene knockdown, the concept of RI (see definition above) was introduced, to more accurately analyze the GFP competition results. The value of RI is defined as X. The biological meaning of this factor X is that in a mixture of uninfected and infected (knockdown) cells, the infected (knockdown) cells will be X-fold as likely to survive drug treatment when compared to uninfected cells. By this definition of X, if one out of n uninfected cells survives a drug treatment, then X our of n infected cells should survive. If the total number of uninfected and infected cells are defined as T and the GFP percentage of untreated population are defined as G1, then the number of surviving, uninfected cells (un) can be defined as n−un=T×(1−G1)×1/n, and the number of surviving, infected cells (in) can be defined as n−in=Tx G1×X/n. […] From this equation, it can be derived that X=(G2−G1×G2)/(G1−G1×G2). This equation was used in the studies to compute RI values.

[3] = system: Eμ-Mycp19^Arf−/− lymphoma cells expressing shRNAs targeting the Bcl2 family, p53 and its activating kinases; experiment: 29-shRNA GFP competition assay, resistance index (RI), clustering and K-nearest-neighbors; type: cell-based, mouse
[4] = concentration at which 80-90% of uninfected lymphoma cells were killed; lowest viability of 24, 48 and 72 h between 10% and 20%
[5] = suppression of ATM, Chk2 and p53
[6] = Mus musculus; concentration at which 80-90% of uninfected lymphoma cells were killed; lowest viability of 24, 48 and 72 h between 10% and 20%; read-out: Concentration used (LD80-90)
[7] = Mus musculus; read-out: Concentration used (LD80-90)
[8] = read-out: Concentration used (LD80-90)

SMILES: N.N.[Cl][Pt][Cl] [Cisplatin]
- Concentration used (LD80-90) [1, 4]: 3.3 µM
- shATM-Chk2-p53 resistance signature [2, 5]: significant resistance

SMILES: CCN(CC)CCCCNc1ncc2cc(-c3cc(OC)cc(OC)c3)c(NC(=O)NC(C)(C)C)nc2n1 [PD 173074]
- IC (80-90) [1, 6]: 4.2 µM

SMILES: C=CCNC1=C2C[C@@H](C)C[C@H](OC)[C@H](O)[C@@H](C)/C=C(\C)[C@H](OC(N)=O)[C@@H](OC)/C=C\C=C(/C)C(=O)NC(=CC1=O)C2=O [17 AAG]
- Concentration used (LD80-90) [1, 4]: 2.6 µM

SMILES: CC[C@]1(O)C[C@H]2CN(CCc3c([nH]c4ccccc34)[C@@](C(=O)OC)(c3cc4c(cc3OC)N(C=O)[C@H]3[C@@](O)(C(=O)OC)[C@H](OC(C)=O)[C@]5(CC)C=CCN6CC[C@]43[C@@H]65)C2)C1 [Vincristine]
- IC (80-90) [1, 6]: 0.0015 µM

SMILES: CC(=O)O[C@H]1C(=O)[C@@]2(C)[C@H]([C@H](OC(=O)c3ccccc3)[C@]3(O)C[C@H](OC(=O)[C@H](O)[C@@H](NC(=O)c4ccccc4)c4ccccc4)C(C)=C1C3(C)C)[C@]1(OC(C)=O)CO[C@@H]1C[C@@H]2O [Paclitaxel]
- IC (80-90) [1, 6]: 0.008 µM

SMILES: C[C@@]12C(=O)OC(=O)[C@]1(C)[C@H]1CC[C@@H]2O1 [Cantharidin]
- IC (80-90) [1, 7]: 10.7 µM

SMILES: COc1cccc2c1C(=O)c1c(O)c3c(c(O)c1C2=O)C[C@@](O)(C(=O)CO)C[C@@H]3O[C@H]1C[C@H](N)[C@H](O)[C@H](C)O1 [Doxorubicin]
- IC (80-90) [1, 6]: 0.0162 µM
- shATM-Chk2-p53 resistance signature [2]: significant resistance

SMILES: O=C(CCCCCN1C(=O)c2cccc3cccc(c23)C1=O)NO [Scriptaid]
- IC (80-90) [1, 6]: 0.5 µM

SMILES: CO[C@H]1C[C@@H]2CC[C@@H](C)[C@@](O)(O2)C(=O)C(=O)N2CCCC[C@H]2C(=O)O[C@H]([C@H](C)C[C@@H]2CC[C@@H](O)[C@H](OC)C2)CC(=O)[C@H](C)/C=C(\C)[C@@H](O)[C@@H](OC)C(=O)[C@H](C)C[C@H](C)/C=C/C=C/C=C/1C [Rapamycin]
- IC (80-90) [1, 6]: 15 µM

SMILES: COc1cc2ncnc(Nc3ccc(F)c(Cl)c3)c2cc1OCCCN1CCOCC1 [Gefitinib]
- IC (80-90) [1, 6]: 12.5 µM

SMILES: NC(=O)NO [Hydroxyurea]
- IC (80-90) [1, 6]: 78 µM

SMILES: COc1cc2ncnc(Nc3cccc(Cl)c3)c2cc1OC [AG1478]
- Concentration used (LD80-90) [1, 4]: 19 µM

SMILES: CC[C@H](C)[C@H](NC(=O)[C@H]([C@@H](C)CC)N(C)C(C)=O)C(=O)N[C@H](C(=O)N[C@@H](CC(C)C)C(=O)[C@@]1(C)CO1)[C@@H](C)O [Epoxomicin]
- IC (80-90) [1, 7]: 0.045 µM

SMILES: COc1cccc2c1C(=O)c1c(O)c3c(c(O)c1C2=O)C[C@@](O)(C(C)=O)C[C@@H]3O[C@H]1C[C@H](N)[C@H](O)[C@H](C)O1 [Daunorubicin]
- IC (80-90) [1, 7]: 0.0225 µM

SMILES: CC[C@H](CO)Nc1nc(NCc2ccccc2)c2ncn(C(C)C)c2n1 [Roscovitine]
- IC (80-90) [1, 7]: 26.7 µM

SMILES: Nc1nc(F)nc2c1ncn2[C@@H]1O[C@H](CO)[C@@H](O)[C@@H]1O [Fludarabine]
- IC (80-90) [1, 7]: 3.8 µM

SMILES: O=c1ncccn1[C@@H]1O[C@H](CO)[C@@H](O)[C@H]1O [Zebularine]
- IC (80-90) [1, 6]: 30 µM

SMILES: Cn1nnc2c(C(N)=O)ncn2c1=O [Temozolomide]
- IC (80-90) [1, 6]: 23.2 µM

SMILES: O=NN(CCCl)C(=O)NCCCl [Carmustine]
- IC (80-90) [1, 7]: 26.7 µM

SMILES: CC(C)C[C@H](NC(=O)[C@H](Cc1ccccc1)NC(=O)c1cnccn1)B(O)O [Bortezomib]
- IC (80-90) [1, 6]: 0.013 µM

SMILES: CCNC(=O)c1noc(-c2cc(Cl)c(O)cc2O)c1-c1ccc(OC)cc1 [VER-50589]
- Concentration used (LD80-90) [1, 4]: 0.16 µM

SMILES: Cc1c2oc3c(C)ccc(C(=O)N[C@@H]4C(=O)N[C@H](C(C)C)C(=O)N5CCC[C@H]5C(=O)N(C)CC(=O)N(C)[C@@H](C(C)C)C(=O)O[C@@H]4C)c3nc-2c(C(=O)N[C@@H]2C(=O)N[C@H](C(C)C)C(=O)N3CCC[C@H]3C(=O)N(C)CC(=O)N(C)[C@@H](C(C)C)C(=O)O[C@@H]2C)c(N)c1=O [Actinomycin D] (I: T[dV]P[Sar][NMeV] / II: T[dV]P[Sar][NMeV]; ester I:1-I:C, II:1-II:C; linker I:N-II:N via Actinocin(9to1))
- IC (80-90) [1, 8]: 0.0012 µM

SMILES: COc1c(C)cnc(Cn2cnc3c(Cl)nc(N)nc32)c1C [BIIB021]
- IC (80-90) [1, 6]: 0.79 µM

SMILES: CN(N=O)C(=O)N[C@@H](C=O)[C@@H](O)[C@H](O)[C@H](O)CO [Streptozocin]
- IC (80-90) [1, 6]: 83 µM

SMILES: N.N.O=C([O-])C1(C(=O)[O-])CCC1.[Pt+2] [Carboplatin]
- Concentration used (LD80-90) [1]: 16.4 µM

SMILES: O=C1c2c(O)ccc(O)c2C(=O)c2c(NCCNCCO)ccc(NCCNCCO)c21 [Mitoxantrone]
- IC (80-90) [1, 6]: 0.0004 µM

SMILES: Nc1nc2nc[nH]c2c(=S)[nH]1 [6-Thioguanine]
- IC (80-90) [1, 6]: 0.054 µM

SMILES: CS(=O)(=O)OCCCCOS(C)(=O)=O [Busulfan]
- IC (80-90) [1, 6]: 40.6 µM

SMILES: CN(Cc1cnc2nc(N)nc(N)c2n1)c1ccc(C(=O)N[C@@H](CCC(=O)O)C(=O)O)cc1 [Methotrexate]
- IC (80-90) [1, 6]: 0.033 µM

SMILES: N[C@@H](Cc1ccc(N(CCCl)CCCl)cc1)C(=O)O [Melphalan]
- IC (80-90) [1, 7]: 3.9 µM

SMILES: Cn1c(CCCC(=O)O)nc2cc(N(CCCl)CCCl)ccc21 [Bendamustine]
- IC (80-90) [1, 7]: 110 µM
- LD80-90 ([1]; figure legend 2c): 110 µM

SMILES: COc1ccc2c(c1OC)C(=O)O[C@@H]2[C@H]1c2c(cc3c(c2OC)OCO3)CCN1C [Noscapine]
- IC (80-90) [1, 6]: 58.1 µM

SMILES: S=P(N1CC1)(N1CC1)N1CC1 [ThioTEPA]
- IC (80-90) ([1]; Mus musculus, read-out: Concentration used (LD80-90)): 2.1 µM

SMILES: CC[C@]1(O)C[C@@H]2CN(CCc3c([nH]c4ccccc34)[C@@](C(=O)OC)(c3cc4c(cc3OC)N(C)[C@H]3[C@@](O)(C(=O)OC)[C@H](OC(C)=O)[C@]5(CC)C=CCN6CC[C@]43[C@@H]65)C2)C1 [Vinblastine]
- IC (80-90) [1, 6]: 0.0025 µM

SMILES: CCc1c2c(nc3ccc(OC(=O)N4CCC(N5CCCCC5)CC4)cc13)-c1cc3c(c(=O)n1C2)COC(=O)[C@]3(O)CC [Irinotecan]
- IC (80-90) [1, 6]: 2.1 µM

SMILES: CO[C@@]12[C@H](COC(N)=O)C3=C(C(=O)C(C)=C(N)C3=O)N1C[C@@H]1N[C@@H]12 [Mitomycin C]
- IC (80-90) [1, 8]: 0.09 µM

SMILES: O=C1C(=O)N(Cc2ccc(Cl)c(Cl)c2)c2ccccc21 [Apoptosis Activator 2]
- Concentration used (LD80-90) [1, 4]: 1.9 µM

SMILES: O=C(O)CCCc1ccc(N(CCCl)CCCl)cc1 [Chlorambucil]
- IC (80-90) [1, 7]: 6.6 µM
- shATM-Chk2-p53 resistance signature [2, 5]: significant resistance

SMILES: CN1C(=O)[C@]23CC4=CC=C[C@H](O)[C@H]4N2C(=O)[C@@]1(CO)SS3 [Gliotoxin]
- IC (80-90) [1, 7]: 0.3 µM

SMILES: Nc1ncn([C@H]2C[C@H](O)[C@@H](CO)O2)c(=O)n1 [Decitabine]
- log2RI ([3]; shRNA targeting Bim (Bim-dependence)): ≈ 2
- log2RI ([3]; shRNA targeting p53 (p53-independence)): ≈ 0
- IC (80-90) [1, 6]: 0.6 µM

SMILES: Nc1ccn([C@@H]2O[C@H](CO)[C@@H](O)C2(F)F)c(=O)n1 [Gemcitabine]
- IC (80-90) [1, 6]: 0.1 µM

SMILES: O=c1[nH]cc(F)c(=O)[nH]1 [5-Fluorouracil]
- IC (80-90) [1, 6]: 0.0305 µM

SMILES: C#Cc1cccc(Nc2ncnc3cc(OCCOC)c(OCCOC)cc23)c1 [Erlotinib]
- IC (80-90) [1, 6]: 6.5 µM

SMILES: COc1cc2c(cc1O)CC[C@@H]1[C@@H]2CC[C@]2(C)[C@@H](O)CC[C@@H]12 [2-Methoxyestradiol]
- Concentration used (LD80-90) [1, 4]: 1.8 µM

SMILES: COc1cc([C@@H]2c3cc4c(cc3[C@@H](O[C@@H]3O[C@@H]5CO[C@@H](C)O[C@H]5[C@H](O)[C@H]3O)[C@H]3COC(=O)[C@H]23)OCO4)cc(OC)c1O [Etoposide]
- IC (80-90) [1, 6]: 0.034 µM

SMILES: CS(=O)(=O)N1CCN(Cc2cc3nc(-c4cccc5[nH]ncc45)nc(N4CCOCC4)c3s2)CC1 [GDC 0941]
- IC (80-90) [1, 6]: 5.4 µM

SMILES: CC[C@@]1(O)C(=O)OCc2c1cc1n(c2=O)Cc2cc3ccccc3nc2-1 [Camptothecin]
- IC (80-90) [1, 7]: 0.0004 µM
- shATM-Chk2-p53 resistance signature [2, 5]: significant resistance
